Laboratory results from ChEMBL document CHEMBL3045826, “Synthesis of new derivatives of 2,2-dimethyl-2,3-dihydro-7-benzo[b]furanol with potential antimicrobial activity” (Med Chem Res, 2009).
Converted amounts (≈) assume the structure as drawn. The source made the active and inactive calls. No cut-off for these calls is given here.

Columns and labels:
Enterococcus hirae [1] = assay: Antibacterial activity against Enterococcus hirae ATCC 10541 at 400 ug after 18 hr by disk diffusion method; format: functional; conditions: ATCC 10541, 18 h, read-out: DIZ
[2] = system: Bordetella bronchiseptica; assay: Antibacterial activity against Bordetella bronchiseptica ATCC 461 after 18 hr; format: functional, organism-based
Candida parapsilosis [3] = assay: Antifungal activity against Candida parapsilosis ATCC 22019 at 400 ug after 24 to 48 hr by disk diffusion method; format: functional; conditions: Lodderomyces parapsilosis, read-out: DIZ
Pseudomonas aeruginosa [4] = assay: Antibacterial activity against Pseudomonas aeruginosa ATCC 15442 after 18 hr; format: functional; conditions: ATCC 15442, 18 h
Escherichia coli [5] = assay: Antibacterial activity against Escherichia coli NCTC 8196 at 400 ug after 18 hr by disk diffusion method; format: functional; conditions: for zone of inhibition at 400 µg/disc: NCTC 8196, 18 h, read-out: DIZ
Candida parapsilosis [6] = assay: Antifungal activity against Candida parapsilosis ATCC 22019 after 18 hr; format: functional; conditions: Lodderomyces parapsilosis, ATCC 22019, 18 h
Bacillus subtilis [7] = assay: Antibacterial activity against Bacillus subtilis ATCC 6633 after 18 hr; format: functional; conditions: ATCC 6633, 18 h
Staphylococcus aureus [8] = assay: Antibacterial activity against Staphylococcus aureus ATCC 29213 at 400 ug after 18 hr by disk diffusion method; format: functional; conditions: ATCC 29213, 18 h, read-out: DIZ
Candida albicans [9] = assay: Antifungal activity against Candida albicans ATCC 90028 at 400 ug after 24 to 48 hr by disk diffusion method; format: functional; conditions: read-out: DIZ
Staphylococcus aureus [10] = assay: Antibacterial activity against Staphylococcus aureus NCTC 4163 at 400 ug after 18 hr by disk diffusion method; format: functional; conditions: NCTC 4163, 18 h, read-out: DIZ
Staphylococcus aureus [11] = assay: Antibacterial activity against Staphylococcus aureus ATCC 25923 after 18 hr; format: functional; conditions: ATCC 25923, 18 h
Staphylococcus aureus [12] = assay: Antibacterial activity against Staphylococcus aureus NCTC 4163 after 18 hr; format: functional; conditions: NCTC 4163, 18 h
Staphylococcus aureus [13] = assay: Antibacterial activity against Staphylococcus aureus ATCC 29213 after 18 hr; format: functional; conditions: ATCC 29213, 18 h
[14] = Cytotoxicity against Homo sapiens (human) MT4 cells after 96 hr by MTT assay; format: cell-based
Pseudomonas aeruginosa [15] = assay: Antibacterial activity against Pseudomonas aeruginosa ATCC 15442 at 400 ug after 18 hr by disk diffusion method; format: functional; conditions: ATCC 15442, 18 h, read-out: DIZ
Proteus vulgaris [16] = assay: Antibacterial activity against Proteus vulgaris NCTC 4635 after 18 hr; format: functional; conditions: NCTC 4635, 18 h
Escherichia coli [17] = assay: Antibacterial activity against Escherichia coli ATCC 25922 after 18 hr; format: functional, organism-based
Candida albicans [18] = assay: Antifungal activity against Candida albicans ATCC 90028 after 18 hr; format: functional; conditions: ATCC 90028, 18 h
Enterococcus hirae [19] = assay: Antibacterial activity against Enterococcus hirae ATCC 10541 after 18 hr; format: functional; conditions: ATCC 10541, 18 h
Escherichia coli [20] = assay: Antibacterial activity against Escherichia coli NCTC 8196 after 18 hr; format: functional, organism-based
Candida albicans [21] = assay: Antifungal activity against Candida albicans ATCC 10231 after 18 hr; format: functional; conditions: ATCC 10231, 18 h
Bacillus subtilis [22] = assay: Antibacterial activity against Bacillus subtilis ATCC 6633 at 400 ug after 18 hr by disk diffusion method; format: functional; conditions: ATCC 6633, 18 h, read-out: DIZ
Candida albicans [23] = assay: Antifungal activity against Candida albicans ATCC 10231 at 400 ug after 24 to 48 hr by disk diffusion method; format: functional; conditions: read-out: DIZ
Escherichia coli [24] = assay: Antibacterial activity against Escherichia coli ATCC 25922 at 400 ug after 18 hr by disk diffusion method; format: functional
[25] = system: Human immunodeficiency virus 1; assay: Antiviral activity against Human immunodeficiency virus 1 infected human MT4 cells assessed as inhibition of virus-induced cytopathogenicity after 4 days by MTT assay; format: functional, organism-based; conditions: Human immunodeficiency virus 1, MT4, 96 h
Staphylococcus aureus [26] = assay: Antibacterial activity against Staphylococcus aureus ATCC 6538P at 400 ug after 18 hr by disk diffusion method; format: functional; conditions: read-out: DIZ
[27] = system: Bordetella bronchiseptica; assay: Antibacterial activity against Bordetella bronchiseptica ATCC 461 at 400 ug after 18 hr by disk diffusion method; format: functional; conditions: for zone of inhibition at 400 µg/disc: ATCC 461, 18 h, read-out: DIZ
Pseudomonas aeruginosa [28] = assay: Antibacterial activity against Pseudomonas aeruginosa NCTC 6749 at 400 ug after 18 hr by disk diffusion method; format: functional, organism-based
Escherichia coli [29] = assay: Antibacterial activity against Escherichia coli ATCC 10538 at 400 ug after 18 hr by disk diffusion method; format: functional
Staphylococcus aureus [30] = assay: Antibacterial activity against Staphylococcus aureus ATCC 25923 at 400 ug after 18 hr by disk diffusion method; format: functional; conditions: ATCC 25923, 18 h, read-out: DIZ
Proteus vulgaris [31] = assay: Antibacterial activity against Proteus vulgaris NCTC 4635 at 400 ug after 18 hr by disk diffusion method; format: functional; conditions: NCTC 4635, 18 h, read-out: DIZ
Staphylococcus aureus [32] = assay: Antibacterial activity against Staphylococcus aureus ATCC 6538P after 18 hr; format: functional
Pseudomonas aeruginosa [33] = assay: Antibacterial activity against Pseudomonas aeruginosa NCTC 6749 after 18 hr; format: functional, organism-based
Escherichia coli [34] = assay: Antibacterial activity against Escherichia coli ATCC 10538 after 18 hr; format: functional, organism-based

| MIC [2] | MIC (Pseudomonas aeruginosa [4]) [mg/L] | MIC (Candida parapsilosis [6]) [mg/L] | MIC (Bacillus subtilis [7]) [mg/L] | MIC (Staphylococcus aureus [11]) [mg/L] | MIC (Staphylococcus aureus [12]) [mg/L] | MIC (Staphylococcus aureus [13]) [mg/L] | MIC (Proteus vulgaris [16]) [mg/L] | MIC (Escherichia coli [17]) | MIC (Candida albicans [18]) [mg/L] | MIC (Enterococcus hirae [19]) [mg/L] | MIC (Escherichia coli [20]) | MIC (Candida albicans [21]) [mg/L] | SMILES | zone of inhibition at 400 µg/disc (Enterococcus hirae [1]) [mm] | zone of inhibition at 400 µg/disc (Candida parapsilosis [3]) [mm] | zone of inhibition at 400 µg/disc (Staphylococcus aureus [8]) [mm] | zone of inhibition at 400 µg/disc (Candida albicans [9]) [mm] | zone of inhibition at 400 µg/disc (Staphylococcus aureus [10]) [mm] | zone of inhibition at 400 µg/disc (Pseudomonas aeruginosa [15]) [mm] | zone of inhibition at 400 µg/disc (Bacillus subtilis [22]) [mm] | also measured |
| --- | --- | --- | --- | --- | --- | --- | --- | --- | --- | --- | --- | --- | --- | --- | --- | --- | --- | --- | --- | --- | --- |
| inactive | 12.5 (≈ 31.2 µM) | 200 (≈ 499 µM) | 12.5 (≈ 31.2 µM) | 25 (≈ 62.4 µM) | 25 (≈ 62.4 µM) | 25 (≈ 62.4 µM) | 12.5 (≈ 31.2 µM) | inactive | 200 (≈ 499 µM) | 50 (≈ 125 µM) | inactive | 200 (≈ 499 µM) | CC1(C)Cc2c(Br)c(Br)c(Br)c(O)c2O1 | 16 | 13 | 18 | 14 | 17 | 22 | 21 | diameter of the inhibition zone (DIZ) (Escherichia coli [5]): inactive; CC50 at 96 h [14]: 60 µM; zone of inhibition at 400 µg/disc (Candida albicans [23]): 13 mm; diameter of the inhibition zone (DIZ) (Escherichia coli [24]): inactive; EC50 [25]: > 60 µM; zone of inhibition at 400 µg/disc (Staphylococcus aureus [26]): 19 mm; diameter of the inhibition zone (DIZ) [27]: inactive; diameter of the inhibition zone (DIZ) (Pseudomonas aeruginosa [28]): inactive; diameter of the inhibition zone (DIZ) (Escherichia coli [29]): inactive; zone of inhibition at 400 µg/disc (Staphylococcus aureus [30]): 18 mm; zone of inhibition at 400 µg/disc (Proteus vulgaris [31]): 15 mm; MIC (Staphylococcus aureus [32]): 25 mg/L (≈ 62.4 µM); MIC (Pseudomonas aeruginosa [33]): inactive; MIC (Escherichia coli [34]): inactive |
| inactive | 25 (≈ 49.8 µM) | 100 (≈ 199 µM) | 12.5 (≈ 24.9 µM) | 100 (≈ 199 µM) | 50 (≈ 99.6 µM) | 100 (≈ 199 µM) | 25 (≈ 49.8 µM) | inactive | 200 (≈ 398 µM) | 50 (≈ 99.6 µM) | inactive | 200 (≈ 398 µM) | CN(C)CC(O)COc1c(Br)c(Br)c(Br)c2c1OC(C)(C)C2 (stereo not given) | 19 | 20 | 19 | 15 | 18 | 23 | 24 | zone of inhibition at 400 µg/disc (Escherichia coli [5]): 15 mm; zone of inhibition at 400 µg/disc (Candida albicans [23]): 17 mm; zone of inhibition at 400 µg/disc (Escherichia coli [24]; ATCC 25922, 18 h, read-out: DIZ): 13 mm; zone of inhibition at 400 µg/disc (Staphylococcus aureus [26]): 19 mm; zone of inhibition at 400 µg/disc [27]: 13 mm; diameter of the inhibition zone (DIZ) (Pseudomonas aeruginosa [28]): inactive; zone of inhibition at 400 µg/disc (Escherichia coli [29]; ATCC 10538, 18 h, read-out: DIZ): 13 mm; zone of inhibition at 400 µg/disc (Staphylococcus aureus [30]): 18 mm; zone of inhibition at 400 µg/disc (Proteus vulgaris [31]): 23 mm; MIC (Staphylococcus aureus [32]): 50 mg/L (≈ 99.6 µM); MIC (Pseudomonas aeruginosa [33]): inactive; MIC (Escherichia coli [34]): inactive |
| inactive | 25 (≈ 46.1 µM) | 100 (≈ 184 µM) | 12.5 (≈ 23.1 µM) | 50 (≈ 92.2 µM) | 50 (≈ 92.2 µM) | 100 (≈ 184 µM) | 50 (≈ 92.2 µM) | inactive | 100 (≈ 184 µM) | 50 (≈ 92.2 µM) | inactive | 100 (≈ 184 µM) | CC1(C)Cc2c(Br)c(Br)c(Br)c(OCC(O)CN3CCCCC3)c2O1 (stereo not given) | 17 | 18 | 16 | 18 | 18 | 20 | 19 | diameter of the inhibition zone (DIZ) (Escherichia coli [5]): inactive; zone of inhibition at 400 µg/disc (Candida albicans [23]): 18 mm; diameter of the inhibition zone (DIZ) (Escherichia coli [24]): inactive; zone of inhibition at 400 µg/disc (Staphylococcus aureus [26]): 17 mm; diameter of the inhibition zone (DIZ) [27]: inactive; diameter of the inhibition zone (DIZ) (Pseudomonas aeruginosa [28]): inactive; diameter of the inhibition zone (DIZ) (Escherichia coli [29]): inactive; zone of inhibition at 400 µg/disc (Staphylococcus aureus [30]): 16 mm; zone of inhibition at 400 µg/disc (Proteus vulgaris [31]): 20 mm; MIC (Staphylococcus aureus [32]): 50 mg/L (≈ 92.2 µM); MIC (Pseudomonas aeruginosa [33]): inactive; MIC (Escherichia coli [34]): inactive |
| inactive | 12.5 (≈ 24.2 µM) | 100 (≈ 194 µM) | 12.5 (≈ 24.2 µM) | 25 (≈ 48.4 µM) | 50 (≈ 96.9 µM) | 25 (≈ 48.4 µM) | 12.5 (≈ 24.2 µM) | inactive | 200 (≈ 388 µM) | 25 (≈ 48.4 µM) | inactive | 200 (≈ 388 µM) | CC(C)NCC(O)COc1c(Br)c(Br)c(Br)c2c1OC(C)(C)C2 (stereo not given) | 17 | 17 | 20 | 15 | 20 | 22 | 23 | zone of inhibition at 400 µg/disc (Escherichia coli [5]): 11 mm; zone of inhibition at 400 µg/disc (Candida albicans [23]): 16 mm; diameter of the inhibition zone (DIZ) (Escherichia coli [24]): inactive; zone of inhibition at 400 µg/disc (Staphylococcus aureus [26]): 21 mm; zone of inhibition at 400 µg/disc [27]: 11 mm; diameter of the inhibition zone (DIZ) (Pseudomonas aeruginosa [28]): inactive; diameter of the inhibition zone (DIZ) (Escherichia coli [29]): inactive; zone of inhibition at 400 µg/disc (Staphylococcus aureus [30]): 18 mm; zone of inhibition at 400 µg/disc (Proteus vulgaris [31]): 24 mm; MIC (Staphylococcus aureus [32]): 25 mg/L (≈ 48.4 µM); MIC (Pseudomonas aeruginosa [33]): inactive; MIC (Escherichia coli [34]): inactive |
